The record followed here is ChEMBL document CHEMBL1125120, “Synthesis and anticonvulsant and sedative-hypnotic activity of 4-(alkylimino)-2,3-dihydro-4H-1-benzopyrans and -benzothiopyrans” (J Med Chem, 1990).

Data set [1] concerns Mus musculus. Description: Ability to inhibit seizures induced by electroshock in mice administered per orally. It is filed as functional. As to conditions: po.
Data set [2] concerns Mus musculus. Description: Ability to inhibit seizures induced by mercaptopropionic acid in mice administered per orally. It is filed as functional. As to conditions: po.
The subject of data set [3] is Mus musculus. Put plainly: Ability to inhibit seizures induced by pentylenetetrazole in mice administered per orally. As to conditions: po. It counts as functional.
Data set [4] can be described thus: (§1) Acute toxicity administered per orally. It is filed as organism-based. As to conditions: mouse, in vivo, po.
Data set [5] relates to Rattus norvegicus. Put plainly: Ability to potentiate pentobarbital-induced sleep administered per orally; i = inactive. It counts as functional, organism-based.
Data set [6] deals with Mus musculus. Put plainly: Ability to inhibit seizures induced by electroshock in mice administered per orally; i = inactive. It counts as functional, organism-based.
Data set [7] has as its system Mus musculus. Put plainly: Ability to inhibit seizures induced by mercaptopropionic acid in mice administered per orally; i = inactive. It counts as functional, organism-based.
For data set [8], the system named is Rattus norvegicus. Put plainly: Ability to potentiate pentobarbital-induced sleep administered per orally. It counts as functional. As to conditions: po.
Data set [9] deals with Mus musculus. The description is as §1. It is filed as functional. The note with it: po.

One may read the ED50 as the dose that gives a 50% effect, or the effect in half of the subjects. One may read the LD50 as the dose expected to kill half of the subjects tested. Low values mean greater toxicity, high ones lower toxicity.

Activity calls are given as the source filed them. No cut-off for these calls is given here.

Regarding `CCCCCc1cc(O)c2c(c1)OC(C)(C)C/C2=N\C[C@@H](C)O`, the results for the ED50 in data set [1], in data set [2] and in [3] were 13.8 mg/kg, 9.4 mg/kg and 14 mg/kg, respectively. In data set [4], this molecule registered an LD50 of 800 mg/kg. For the same molecule, the ED50 result in data set [5] was “inactive”.

As for `CCCCCc1cc(O)c2c(c1)OC(C)(C)C/C2=N\CC(C)O` (stereo not given), the ED50 result in [6], in data set [7] and in [5] was “inactive” in each case. This molecule also came in with an ED50 in [3] of 24.3 mg/kg. The molecule further registered an LD50 in [4] of 800 mg/kg.

`CCCCCc1cc(O)c2c(c1)OC(C)(C)C/C2=N\CCO`: the ED50 entry in [6], in data set [7] and in data set [5] was “inactive” throughout. The ED50 in data set [3] worked out at 19 mg/kg. The molecule further returned an LD50 in [4] greater than 800 mg/kg.

In the case of `CCCC(CCC)C(=O)[O-].[Na+]` [VALPROATE SODIUM], the 50% effective dose (ED50) in data set [1] came to 206 mg/kg; in data set [2], 200 mg/kg; in data set [3], 200 mg/kg.

Turning to `CCCCc1cc(O)c2c(c1)OC(C)(C)C[C@H]2NCC(C)O` (stereo not given in full), the ED50 result in data set [6] and in [7] was “inactive” each time. Further, the ED50 in data set [3] stood at 15.5 mg/kg; in data set [8], 14.2 mg/kg. This molecule also registered an LD50 in [4] of 800 mg/kg.

For `CCCCCc1cc(O)c2c(c1)SC(C)(C)C/C2=N\CCO`, the ED50 entry in data set [6], in data set [7] and in data set [5] was “inactive” in each case. Further, the 50% effect level in [3] (ED50) was put at a dose of 24 mg/kg. In addition, the LD50 in data set [9] was greater than 800 mg/kg.

Regarding `CCCCCc1cc(O)c2c(c1)SC(C)(C)C/C2=N\CC(C)O` (stereo not given), the ED50 entry in [6] was “inactive”. The ED50 in data set [3] was found to be 14.3 mg/kg; in [8] it was 10 mg/kg. For the same molecule, the LD50 in data set [4] is greater than 800 mg/kg.

As for `CCCCCc1cc(O)c2c(c1)SC(C)(C)C[C@H]2NCC(C)O` (stereo not given in full), the median effective dose (ED50) is 20.6 mg/kg in data set [1], 8.8 mg/kg in [2], 4.8 mg/kg in data set [3] and 9.7 mg/kg in data set [8]. This molecule also yielded an LD50 in data set [4] greater than 1600 mg/kg.

Consider `CN1C(=O)CN=C(c2ccccc2)c2cc(Cl)ccc21` [DIAZEPAM], for which the ED50 worked out at 1.2 mg/kg in data set [1], 0.7 mg/kg in [2] and 0.5 mg/kg in data set [3].
